Source: US20210236657A1, “NERVE-SPECIFIC FLUOROPHORE FORMULATIONS FOR DIRECT AND SYSTEMIC ADMINISTRATION” (OREGON HEALTH & SCIENCE UNIVERSITY, priority 2018, published 2021)

Key:
nerve = details: Park et al. Theranostics 4, 823-833 (2014); cited from earlier work
[1] = tested on: brachial plexus and sciatic nerves; assay: Formulation nerve-specificity screening after systemic administration; type: in vivo, mice; details: preclinical mouse models
Description: Ox4 and LGW01-08 solubilized in each formulation were screened in mice following systemic administration for nerve specificity. 200 nmol of LGW01-08 in 100 μL of the four prepared formulations were administered intravenously to n=3 mice 4 hours before nerve imaging. The four hour fluorophore to imaging window had been previously shown to provide the highest nerve to background tissue fluorescence for Oxazine 4 and several other nerve specific fluorophores. Gibbs-Strauss et al. Molecular imaging 10, 91-101 (2011); Park et al. Theranostics 4, 823-833 (2014); Barth & Gibbs. Theranostics 7, 573-593 (2017). Uninjected animals were used for all control images (n=3 mice or 12 nerve sites/formulation).
Intraoperative Fluorescence Imaging Systems. A custom-built small animal imaging system capable of real-time color and fluorescence imaging was used to acquire rodent in vivo images. The imaging system consisted of a QImaging EXi Blue monochrome camera (Surrey, British Columbia, CA) for fluorescence detection with a removable Bayer filter for collecting co-registered color and fluorescence images. […] For fluorescence excitation, the PhotoFluor II was filtered with a 620±30 nm bandpass excitation filter. Resulting fluorescence was collected with a 700±37.5 nm bandpass emission filter for image collection. […] Camera exposure times ranged from 10-2000 ms for fluorescence image collection. […]

[2] = Pharmacokinetics and biodistribution by LCMS/MS; type: in vivo, mice; details: 2 mg/kg
Description: (§1) Drug release pharmacokinetics (PK) and biodistribution (BioD) studies were completed in mice systemically administered DSPE-PEG micelle, cyclodextrin or co-solvent formulated LGW01-08 for equivalent comparison, explained as follows. Formulated LGW1-08 was injected at a 2 mg/kg dose and blood collection was completed at the time points of 0, 0.5, 1, 2, 4, 8, and 24 hours post injection (n=5 mice per time point per formulation). Following blood collection via cardiac puncture, fluorescence and color images were acquired of the brain, lungs, liver, stomach, intestines, pancreas, spleen, kidney, bladder, brachial plexus, and sciatic nerves (n=3 mice per time point per formulation). Additionally, brain, lung, heart, liver, and kidney tissues were collected for liquid chromatography mass spectroscopy (LCMS/MS) analysis (n=5 mice per time point per formulation). The pharmacokinetic parameters were calculated from blood uptake kinetics data by non-compartmental analysis using Phoenix 64 (Certara, Princeton, N.J.), including the area under the concentration versus time curve from 0 to ∞ (AUC0-∞), plasma volume of distribution (Vd), clearance (CL) and half-life (t1/2).

[3] = LGW01-08 solubility and loading in formulations (spectrophotometric quantification); type: physicochemical
Description: Based on the solubility of the nerve specific dye, liposomes sphingomyelin cholesterol (55:45), a FDA approved lipid mix was considered first for encapsulation of the agent as the lipid vesicles have both the lipid bilayer and hydrophilic core. Two common methods for preparation of liposomes are passive and pH gradient method. For passive loading method, both LGW01-08 and lipids were dissolved in a mixture of chloroform and methanol (70:30) and subjected to rotary evaporation under vacuum. […]
The next delivery platform which could increase the solubility of the nerve dye without compromising the nerve specificity was micelles. […] Commercially available (A-B-A block), PLURONIC® ethylene oxide-propylene oxide block co-polymer capable of self-assembly to form micelle was evaluated for encapsulating the nerve dye. […] The supernatant was passed through a 0.22μ filter and analyzed for nerve dye loading.
In order to achieve higher encapsulation, two more polymeric micelle platforms: Poly(ethylene glycol)(2 k)-block-poly(D,L-lactic acid) (1.8 k) (PEG-b-PLA) and Distearyl-phosphatidylethanolamine-PEG2000 (DSPE-PEG) were evaluated. […] Triplicate samples were prepared for quantification by diluting the complex 100-fold in 10% triton solution. […]
HP-β-CD complex was prepared by the solvent casting method. […] Triplicate samples were prepared for quantification by diluting the complex 100-fold in 10% triton solution. […]

[4] = tested on: brachial plexus and sciatic nerves; assay: Dose ranging pharmacodynamics imaging studies; type: in vivo, mice; details: two hours post injection
Description: Following PK studies to assess the maximum nerve signal to background ratio (SBR) for LGW1-08 in each formulation (2 hours), dose response pharmacodynamic (PD) studies were completed in mice using a dose range up to the MTD: 0.1, 0.2, 0.3, 0.6, 1, 1.5, 2, 2.5, and 3 mg/kg (n=3 mice per dose per formulation).
Nerve specific contrast and tissue biodistribution intensities were assessed for all initial testing, PK, BioD, and PD studies using the intraoperative fluorescence imaging systems to collect images of the nerves and surrounding tissue as well as the additional tissues for biodistribution assessment. Additional unstained control animals were imaged to assess tissue autofluorescence.
Custom written MatLab code was used to analyze the tissue specific fluorescence where regions of interest (ROIs) were selected using the white light images. These ROIs were then analyzed on the co-registered matched fluorescence images permitting assessment of the mean tissue intensities and nerve signal to background ratios. Intensity measurements were divided by the exposure time to obtain normalized intensity per second measurements.

[5] = tested on: brachial plexus and sciatic nerves; assay: Fluorescence imaging time course after systemic administration; type: in vivo, mice; details: 2 mg/kg, 24 hours after systemic administration, all formulations
Description: as §1, with “Formulated LGW1-08 was injected at a 2 mg/kg dose and blood collection was completed at the time points of 0, 0.5, 1, 2, 4, 8, and 24 hours post injection (n=5 mice per time point per formulation).” left out, “(t1/2). Nerve specific contrast and tissue biodistribution intensities were assessed for all initial testing, PK, BioD, and PD studies using the intraoperative fluorescence imaging systems to collect images of the nerves and surrounding tissue as well as the additional tissues for biodistribution assessment. Additional unstained control animals were imaged to assess tissue autofluorescence. […]” for “(t1/2).”

[6] = DSPE-PEG micelle and cyclodextrin formulations

Molecule	nerve specificity (nerve)	nerve specificity following systemic administration [1]	blood concentrations over time ([2]; all formulations)	LGW01-08 cleared from the tissue ([2]; by 4 hours post injection)	solubility [3]	nerve SBRs across all doses tested ([4]; 0.1-3 mg/kg)	dose at which fluorescence intensity values were highest [4, 6]	fluorescence intensity values at the 0.1 mg/kg dose [4, 6]	dose up to which nerve to adipose background ratios increased [4]	dose up to which nerve to muscle background ratios increased [4]	nerve fluorescence signal intensities [5]
Oxazine 4 perchlorate	high nerve-specificity										
CCNc1cc2oc3cc(=[N+](CC)CC)ccc-3nc2cc1C [LGW1-08, N-ethyl-N-(7-(ethylamino)-8-methyl-3H-phenoxazin-3-ylidene)ethanaminium]		high nerve specificity	decreased quickly	90-99%	250 µg/mL	No significant difference	2.5 mg/kg	decreased to autofluorescence levels	1.5 mg/kg	0.6 mg/kg	close to baseline autofluorescence levels
